PubChem BioAssay (NCI)
Values joined by “and” are separate entries in the source; they are usually repeats but may differ in a detail not shown here. Equal entries are not always repeated.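 Exposure lasted 48 hours, with cells grown in 96-well plates and compounds tested at five concentrations. GI50 = concentration required for 50% inhibition of growth. TGI: concentration producing complete growth inhibition.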

What was measured:
Assay in all cases: DTP human tumour cell line panel, 48 h
[1] = tested on: NCI-H522 lung
[2] = tested on: T-47D breast
[3] = tested on: NCI-H460 lung
[4] = tested on: RPMI-8226 leukemia
[5] = tested on: SN12C renal
[6] = tested on: KM12 colon
[7] = tested on: HCC-2998 colon
[8] = tested on: BT-549 breast
[9] = tested on: HL-60(TB) leukemia
[10] = tested on: SK-MEL-5 melanoma

Row | Compound | GI50 [1] | TGI [1] | GI50 [2] | TGI [2] | GI50 [3] | TGI [3] | GI50 [4] | TGI [4] | GI50 [5] | TGI [5] | GI50 [6] | TGI [6] | GI50 [7] | TGI [7] | GI50 [8] | TGI [8] | GI50 [9] | TGI [9] | GI50 [10] | TGI [10]
1 | CNCCCn1c2c(c3ccc(F)cc3c1=O)C(=O)c1cc(OC)cnc1-2 | 56.9 nM | 1080 nM | 160 nM | 704 nM | 49.2 nM | 261 nM | 203 nM | 912 nM | 211 nM | 1340 nM | 242 nM | 1480 nM | 1150 nM | 4170 nM | 577 nM | 4840 nM | 221 nM | 753 nM | 307 nM | 1080 nM
2 | CC/C=C\C[C@H](O)C/C=C1/C(=O)C=C[C@@H]1C/C=C\CCCC(=O)NC | 1540 nM | 3770 nM | 2320 nM | 12500 nM | 1630 nM | 4150 nM | 957 nM | 6000 nM | 2330 nM | 8500 nM | 1360 nM | 2790 nM | 1820 nM | 3350 nM | 1910 nM | 4990 nM | 1700 nM | 7240 nM | 1620 nM | 2980 nM
3 | Cc1ccc(C)c2c(N=Nc3ccccc3[N+](=O)[O-])c(O)[nH]c12 | – | > 100000 nM | – | > 100000 nM | – | > 100000 nM | – | > 100000 nM | – | > 100000 nM | – | > 100000 nM | – | > 100000 nM | – | > 100000 nM | – | > 100000 nM | – | > 100000 nM
4 | Clc1ccc(N2CCC(N3CCCC3)CC2)cc1-c1nc2ccccc2[nH]1 | 19100 nM | 38700 nM | 21600 nM | 88100 nM | 22900 nM | 50100 nM | 20900 nM | 53800 nM | 25000 nM | > 73700 nM | 22600 nM | 55200 nM | 18600 nM | 37400 nM | 14100 nM | 31200 nM | 23500 nM | 50100 nM | 6590 nM | 17100 nM
5 | CC(=O)c1cccc(NC(=O)c2ccc(NC3=C(Cl)C(=O)N(Cc4ccccc4)C3=O)cc2)c1 | 2450 nM | 19400 nM | 25100 nM | > 100000 nM | 22100 nM | > 100000 nM | 3310 nM | 15100 nM | 1920 nM | 9630 nM | 20000 nM | 43000 nM | 23100 nM | 41000 nM | 8800 nM | 27900 nM | 2830 nM | 17200 nM | 12500 nM | 27700 nM
6 | CCN(CC)CCCNc1[nH]ncc2c(C)c3nc4ccccc4c3cc12 | 217 nM | 1150 nM and 1140 nM | 1010 nM | 17000 nM and 20200 nM | 220 nM | 1360 nM and 2690 nM | 1510 nM and 990 nM | 4920 nM and 5620 nM | 585 nM | 3870 nM and 3600 nM | 355 nM | 1470 nM and 6750 nM | 375 nM | 2120 nM and 3060 nM | 2080 nM | 2750 nM and 5170 nM | – | 1890 nM | 1410 nM | 2780 nM and 5050 nM
7 | O=C1N[C@H]2[C@H](O)[C@H](O)[C@@H](O)[C@H](O)[C@@H]2c2cc3c(c(O)c21)OCO3 | 143 nM | 886 nM and 141 nM | – | 155 nM | 234 nM and 84 nM | 652 nM and 448 nM | 224 nM and 842 nM | – | 206 nM and 246 nM | 2110 nM and 280 nM | 234 nM | 2800 nM and 410 nM | 61.8 nM | 279 nM and 148 nM | 18.7 nM | 68.4 nM and 142 nM | 194 nM and 78.3 nM | 331 nM and 74.4 nM | 127 nM | –
8 | CN1CCN(c2ccc(C(=O)Nc3cccc(C#Cc4cccc5[nH]nc(N)c45)c3)cc2C(F)(F)F)CC1 | 566 nM | 1300 nM | 1240 nM | 5550 nM | 701 nM | 1500 nM | 1450 nM | 4060 nM | 1200 nM | 4540 nM | 808 nM | 1950 nM | 658 nM | 1310 nM | 3360 nM | 7680 nM | 866 nM | 3080 nM | 2160 nM | 6340 nM
9 | COC(=O)[C@@H](OC)[C@@H]1Cc2cc3cc(OC4CC(OC5CC(O)C(O)C(C)O5)C(O)C(C)O4)c(C)c(O)c3c(O)c2C(=O)[C@H]1OC1CC(OC2CC(OC3CC(C)(O)C(O)C(C)O3)C(O)C(C)O2)C(O)C(C)O1 (stereo partly drawn) | 35.8 nM | 172 nM | 42.1 nM | > 16500 nM | 42.9 nM | > 16500 nM | 32.9 nM | 112 nM | 38.9 nM | > 16500 nM | 40.4 nM | 3720 nM | 36.5 nM | 252 nM | 18.6 nM | 97.4 nM | 40.5 nM | 740 nM | 32.7 nM | 89.2 nM
10 | Cn1c2ccccc2c2nnc(NNCc3ccccn3)nc21 | 546 nM | 18100 nM | 369 nM | 8980 nM | 300 nM | 4030 nM | 589 nM | 18400 nM | 462 nM | 14600 nM | 478 nM | 14200 nM | 321 nM | 12700 nM | 729 nM | 14900 nM | 318 nM | 3130 nM | 271 nM | 1650 nM
11 | CN(C)c1ccc(/C=N/NC(=O)c2cccc3ccccc23)c(Cl)c1 | 1120 nM | 39400 nM | 2950 nM | > 100000 nM | 1010 nM | > 100000 nM | 2190 nM | > 100000 nM | 8850 nM | > 100000 nM | 1010 nM | > 100000 nM | 38500 nM | > 100000 nM | 733 nM | > 100000 nM | 460 nM | 3640 nM | 922 nM | 24100 nM
12 | CC12CCC(O)CC1=CCC1C2CCC2(C)C(c3cccnc3)=CCC12 (stereo not drawn) | > 100000 nM | > 100000 nM | > 100000 nM | > 100000 nM | > 100000 nM | > 100000 nM | 39100 nM | > 100000 nM | > 100000 nM | > 100000 nM | > 100000 nM | > 100000 nM | > 100000 nM | > 100000 nM | > 100000 nM | > 100000 nM | > 100000 nM | > 100000 nM | 74200 nM | > 100000 nM
13 | C#C/C=C/CC1OC(C(Br)CC)CC(Br)C2CC1O2 (stereo not drawn) | – | 21100 nM | – | > 100000 nM | – | > 100000 nM | – | > 100000 nM | – | > 100000 nM | – | > 100000 nM | – | > 100000 nM | – | > 100000 nM | – | > 100000 nM | – | > 100000 nM
14 | O=S(=O)(NCCO)c1cc[c]([Sb](=[O])([OH])[OH])cc1 | > 100000 nM | > 100000 nM | > 100000 nM | > 100000 nM | > 100000 nM | > 100000 nM | > 100000 nM | > 100000 nM | > 100000 nM | > 100000 nM | > 100000 nM | > 100000 nM | > 100000 nM | > 100000 nM | > 100000 nM | > 100000 nM | > 100000 nM | > 100000 nM | > 100000 nM | > 100000 nM
15 | C[C@@](O)(/C=C/[C@H]1CC=CC(=O)O1)[C@@H](C[C@@H](O)\C=C/C=C\C=C\CO)OP(=O)(O)O | – | 66100 nM and 60100 nM | – | 161000 nM | 14200 nM | 63600 nM and 78500 nM | – | 8500 nM | – | 80500 nM | – | 32200 nM and 37800 nM | – | 22300 nM | – | 36600 nM | – | 2990 nM | 7890 nM | 21800 nM and 27000 nM
